Molecular target: T1, Tyrosine-protein kinase JAK3 (Homo sapiens, UniProt P52333)
T1 sequence (P52333 whole entry): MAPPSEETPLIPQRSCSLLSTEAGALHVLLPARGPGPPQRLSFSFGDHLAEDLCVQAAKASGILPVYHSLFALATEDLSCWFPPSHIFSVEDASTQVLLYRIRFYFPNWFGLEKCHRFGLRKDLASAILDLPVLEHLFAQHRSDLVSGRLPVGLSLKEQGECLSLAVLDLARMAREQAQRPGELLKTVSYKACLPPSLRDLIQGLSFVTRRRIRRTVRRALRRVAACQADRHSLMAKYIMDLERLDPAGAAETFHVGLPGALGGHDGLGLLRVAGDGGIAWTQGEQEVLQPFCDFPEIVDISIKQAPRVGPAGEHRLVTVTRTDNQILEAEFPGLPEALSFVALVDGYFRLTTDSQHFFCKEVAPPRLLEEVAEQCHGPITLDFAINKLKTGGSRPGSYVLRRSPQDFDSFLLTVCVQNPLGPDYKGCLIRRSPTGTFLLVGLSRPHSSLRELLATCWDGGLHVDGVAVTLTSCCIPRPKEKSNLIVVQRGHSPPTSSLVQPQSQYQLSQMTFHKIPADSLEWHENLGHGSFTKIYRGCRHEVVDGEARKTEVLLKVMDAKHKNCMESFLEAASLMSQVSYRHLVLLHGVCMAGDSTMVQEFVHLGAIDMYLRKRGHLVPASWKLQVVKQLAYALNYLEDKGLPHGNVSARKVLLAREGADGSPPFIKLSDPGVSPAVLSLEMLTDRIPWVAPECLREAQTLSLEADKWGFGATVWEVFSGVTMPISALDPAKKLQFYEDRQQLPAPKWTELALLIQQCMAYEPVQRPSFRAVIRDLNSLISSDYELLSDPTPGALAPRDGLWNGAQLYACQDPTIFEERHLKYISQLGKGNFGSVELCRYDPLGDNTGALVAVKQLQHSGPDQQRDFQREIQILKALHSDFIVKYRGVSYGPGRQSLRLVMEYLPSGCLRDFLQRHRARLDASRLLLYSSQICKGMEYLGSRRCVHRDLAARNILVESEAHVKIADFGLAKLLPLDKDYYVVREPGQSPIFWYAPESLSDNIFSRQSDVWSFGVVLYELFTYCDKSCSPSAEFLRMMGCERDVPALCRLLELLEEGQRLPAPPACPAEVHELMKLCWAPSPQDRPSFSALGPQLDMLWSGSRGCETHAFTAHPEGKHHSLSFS
Experiment: In Vitro Inhibition Assay
Method: All additions were done on ice, followed by the addition of ATP mix. Wells were uniformly mixed using an Eppendorff plate shaker and incubated at 30° C. for 20 min, and stopped by the addition of 5 μL of 3% phosphoric acid. Volume was increased to 100 μL by adding 0.8% phosphoric acid which was then transferred to PC filter mats (Millipore), pre-equilibrated with 70% ethanol and water. Plates were washed thrice with 100 μL 0.8% phosphoric acid and dried for an hour at 60° C. 100 μL scintillation fluid was added into each well and reading taken in Perkin Elmer TOPCOUNT beta counter.

## C=CC(=O)Nc1cccc(-c2cnc3[nH]cc(-c4cccc(S(=O)(=O)N(CC)CC)c4)c3c2)c1 [US9834551, Example 28]
  IC50: < 100 nM

## C=CC(=O)Nc1cccc(-c2cnc3[nH]cc(-c4cccc(C)c4F)c3c2)c1 [US9834551, Example 148]
  IC50: < 100 nM
